Assay results published in patent publication US20040176471A1, “Novel chalcone derivatives and pharmaceutical compositions comprising the same” (KAOHSIUNG MEDICAL UNIVERSITY, priority 2003, published 2004).
Read-outs that look alike come from different tables or passages of the source.

Tests used:
[1] = system: rat neutrophils; details: rat neutrophils stimulated with fMLP; concentration of 3 mg/mL; cited from earlier work
[2] = system: RAW 264.7 cells; assay: NO production (nitrite accumulation, Griess reaction) in LPS-stimulated macrophage-like cells; assay type: cell-based, mouse; details: for % of inhibition of NO2− accumulation at the highest concentration, RAW 264.7 cells: LPS, at the highest concentration (bound given in the source); for IC50 / suppression of LPS-induced NO production in RAW 264.7 cells (in words): LPS (1 μg/mL), 24 hrs; for IC50: read-out: IC50, accumulation of NO2− in culture media, RAW 264.7 cells
Experimental: RAW 264.7 mouse macrophage-like cell line (American Type Culture Collection (ATCC), PO Box 1549, Manassas, Va. 20108 USA) was plated in 96 well tissue-culture plates in Dulbecco's Modified Eagle Medium (DMEM) supplemented with 10% fetal calf serum (FCS), 100 units/ml of penicillin and streptomycin at 2×10^5 cells/200 μL per well. Cells were allowed to adhere overnight. The cells were treated with DMSO or a tested compound at 37° C. for 1 hr. followed by stimulation with 1 μg/mL of LPS (Escherichia coli, serotype 0111:B4) for 24 hrs. Thereafter, the medium in each well was collected and stored at −70° C. until use. The final volume of DMSO in the reaction mixture was≦0.5%.
(§1) The production of NO in cell medium was determined by measuring the content of nitrite based on the Griess reaction (L. Mingghetti et at (1997), Glia, 19, 152-160). Briefly, 40 μL of 5 mM sulfanilamide, 10 μL of 2 M HCl, and 20 μL of 40 mM naphthylethylenediamine were added into 150 μL culture medium in sequence. After 10 min of incubation at room temperature, absorbance was measured at 550 nm in a microplate reader. A standard nitrite curve was generated in the same fashion, using NaNO2.

[3] = system: rat neutrophils; assay: Superoxide anion generation in neutrophils stimulated with fMLP/CB or PMA (cytochrome c reduction); assay type: cell-based; details: for inhibition / IC50: Neutrophil; for inhibition / IC50 / % of inhibition of superoxide anion generation at the highest concentration, fMLP/CB: rat neutrophils; for inhibition / % of inhibition of superoxide anion generation at the highest concentration, fMLP/CB: at the highest concentration (bound given in the source)
Experimental: Superoxide anion generation was measured in terms of superoxide dismutase-inhibitable cytochrome c reduction (M. Market et al. (1984), Methods Enzymol., 105, 358). Neutrophil suspension was preincubated with DMSO or a tested compound for 3 min, and then superoxide dismutase or Hank's balanced salt solution (HBSS) was added into the blank and test wells, respectively. The final volume of DMSO in the reaction mixture was≦0.5%. After addition of cytochrome c, reaction was initiated by challenge with formyl-Met-Leu-Phe (fMLP) (0.3 μM)/cytochalasin B (CB) (5 μg/mL) or phorbol myristate acetate (PMA) (3 nM). Thirty minutes later, the reaction was terminated by centrifugation and the absorbance changes of supernatant were monitored at 550 nm in a microplate reader. In the experiment, Trifluoperazine was used as a positive control

[4] = system: N9 cells; assay: NO production (nitrite accumulation, Griess reaction) in LPS/IFN-γ-stimulated microglial cells; assay type: cell-based, murine; details: for % of inhibition of NO2− accumulation at the highest concentration, N9 cells: LPS/IFN-γ, at the highest concentration (bound given in the source); for IC50: LPS (10 ng/mL)/IFN-γ (10 unit/mL), 24 hrs, read-out: IC50, accumulation of NO2− in culture media, N9 cells
Experimental: Cells of murine microglial cell line N9 (kindly provided by Dr. P. Ricciardi-Castagnoli, CNR Cellular and Molecular Pharmacology Center, Italy) (S. B. Corradin et al. (1993), Glia, 7, 255-262) were suspended in Iscove's Modified Dulbecco's medium containing 5% heat-inactivated FCS and antibiotics and then plated into 96-well tissue-culture plates at 8×10^4 cells/200 μL per well. The cells were treated with DMSO or a tested compound at 37° C. for 1 hr, followed by stimulation with LPS (10 ng/mL)/IFN-γ (10 unit/mL) for 24 hrs. Thereafter, the medium in each well was collected and stored at −70° C. until use. The final volume of DMSO in the reaction mixture was<0.5%
as §1

[5] = system: rat neutrophils; assay: Neutrophil degranulation stimulated with fMLP/CB (release of β-glucuronidase and lysozyme); assay type: cell-based; details: for IC50: Neutrophil, fMLP (1 μM)/CB (5 μg/mL); for IC50 / % of inhibition of Lysozyme release at the highest concentration / % of inhibition of β-Glucuronidase release at the highest concentration: rat neutrophils; for % of inhibition of Lysozyme release at the highest concentration / % of inhibition of β-Glucuronidase release at the highest concentration: at the highest concentration (bound given in the source)
Experimental: Blood was withdrawn from rat (Sprague-Dawley, 250-300 g, 10-12 weeks old) and mixed with EDTA. […] Cell suspension was preincubated at 37° C. with DMSO or drugs for 10 min, and then challenged with fMLP (1 μM)/CB (5 μg/mL). The final volume of DMSO in the reaction mixture was≦0.5%. […] After treatment of the cell suspension with Triton X-100, the total content of lysozyme and β-glucuronidase was measured and the percentage release was calculated. In the experiment, Trifluoperazine was used as a positive control.

[6] = system: rat peritoneal mast cells; assay: Mast cell degranulation stimulated with compound 48/80 (release of β-glucuronidase and histamine); assay type: cell-based; details: for IC50: Mast cell, compound 48/80 (10 μg/mL); for % of inhibition of Histamine release at the highest concentration / % of inhibition of β-Glucuronidase release at the highest concentration: compound 48/80, at the highest concentration (bound given in the source)
Experimental: Heparinized Tyrode's solution was injected into the peritoneal cavity of exsanguinated rat (Sprague-Dawley, 250-300 g, 10-12 weeks old). […] Cell pellets were washed and suspended in Tyrode's solution with 0.1% BSA to 1×10^6 cells/mL. Cell suspension was then preincubated at 37° C. with DMSO or a tested compound for 5 min. The final volume of DMSO in the reaction mixture was≦0.5%. […] After treatment of the cell suspension with Triton X-100, the total content of β-glucuronidase and histamine was measured, and the percentage release was calculated. In the experiment, Mepacrine was used as a positive control.

[7] = PMA (3 nM), read-out: IC50, superoxide anion generation, PMA
[8] = fMLP (0.3 μM)/CB (5 μg/mL), read-out: IC50, superoxide anion generation, fMLP/CB
[9] = read-out: IC50, release of Lysozyme
[10] = read-out: IC50, release of β-Glucuronidase
[11] = read-out: IG50, release of Histamine
[12] = read-out: IG50, release of β-Glucuronidase

Row | SMILES | IC50 ([2]; Mus musculus, RAW264.7) [µM] | IC50 [3, 7] [µM] | IC50 [3, 8] [µM] | melting point [°C] | IC50 ([4]; Mus musculus, N9) [µM] | IC50 [5, 9] [µM] | IC50 [5, 10] [µM] | IC50 [6, 11] [µM] | IC50 [6, 12] [µM] | % of inhibition of NO2− accumulation at the highest concentration, RAW 264.7 cells [2] [%] | inhibition ([3]; PMA (3 nM)) [%] | % of inhibition of NO2− accumulation at the highest concentration, N9 cells [4] [%] | % of inhibition of Histamine release at the highest concentration [6] [%] | % of inhibition of β-Glucuronidase release at the highest concentration [6] [%] | also measured
1 | CC(C)=CCc1cc(C(=O)/C=C/c2ccc(O)c(O)c2)c(O)cc1O [Brousschalcone A] |  |  |  |  |  |  |  |  |  |  |  |  |  |  | % inhibition of release of lysozyme [1]: 68.0±13.4%; % inhibition of release of β-glucuronidase [1]: 51.1±12.6%
2 | O=C(/C=C/c1ccc(Cl)c(Cl)c1)c1cc(O)ccc1O [Compound 4, 3,4-Dichloro-2′,5′-dihydroxychalcone] | > 1 | > 10 | 0.6 ± 0.2 | 171 to 174 | > 1 |  |  |  |  | −4.9 ± 1.9 | 21.9 | −10.3 ± 1.5 |  |  | inhibitory effect on fMLP/CB-induced superoxide anion generation (in words) [3]: more potent than the positive control, trifluoperazine
3 | COc1ccc(OC)c(C(=O)/C=C/c2ccc(Br)cc2)c1 [Compound 2, 4-Bromo-2′,5′-dimethoxychalcone] | > 10 | > 30 | 8 ± 2.4 | 85 to 87 | > 10 | 5.7 ± 0.3 | 5.6 ± 0.3 | > 30 | > 30 | 8.9 ± 4.0 | 22.9 | −5.6 ± 1.1 | 21.7 ± 1.5 | 28.6 ± 3.4 | 
4 | COc1ccc(OC)c(C(=O)/C=C/c2ccc(O)cc2)c1 [Compound 1, 2′,5′-Dimethoxy-4-hydroxychalcone] | 14.6 ± 0.1 | > 30 | 19.5 ± 3.5 | 127 to 128 | 17.8 ± 0.2 | 28.3 ± 1.9 | 20.6 ± 2 | > 30 | > 30 |  | 36.3 |  | 10.0 ± 5.1 | 8.3 ± 2.3 | suppression of LPS-induced NO production in RAW 264.7 cells (in words) [2]: suppressed
5 | COc1ccc(OC)c(C(=O)/C=C/c2ccc(Cl)c(Cl)c2)c1 [Compound 3, 3,4Dichloro-2′,5′-dimethoxychalcone] | > 3 | > 30 | 12.9 ± 0.4 | 121 to 123 | > 3 | 5.1 ± 0.1 | 5 ± 0.3 | > 30 | > 30 | 2.0 ± 3.1 | -27.1 | 4.3 ± 3.1 | 35.2 ± 1.0 | 44.3 ± 2.3 | 
6 | COC(=O)[C@@H](N)CCCNC(=N)N[N+](=O)[O-] [L-NAME, N^ω-nitro-L-arginine methyl ether, reference compound] |  |  |  |  |  |  |  |  |  |  |  |  |  |  | IC50 ([2]; positive control): 510 ± 20 µM; IC50 ([4]; positive control): 630 ± 10 µM

Continued, in another order:

Row | IC50 ([2]; Mus musculus, RAW264.7) [µM] | IC50 [3, 7] [µM] | IC50 [3, 8] [µM] | melting point [°C] | IC50 ([4]; Mus musculus, N9) [µM] | IC50 [5, 9] [µM] | IC50 [5, 10] [µM] | IC50 [6, 11] [µM] | IC50 [6, 12] [µM] | SMILES | % of inhibition of NO2− accumulation at the highest concentration, RAW 264.7 cells [2] [%] | inhibition ([3]; PMA (3 nM)) [%] | % of inhibition of NO2− accumulation at the highest concentration, N9 cells [4] [%] | % of inhibition of Histamine release at the highest concentration [6] [%] | % of inhibition of β-Glucuronidase release at the highest concentration [6] [%] | also measured
7 | > 10 | > 30 | 17.7 ± 7.2 | 97 to 99 | > 30 | 6.6 ± 0.4 | 6.2 ± 0.3 | > 30 | > 30 | CCCOc1ccc(O)c(C(=O)/C=C/c2ccc(Cl)c(Cl)c2)c1 [Compound 6, 3,4-Dichloro-2′-hydroxy-5′-propoxy-chalcone] | 7.5 ± 0.4 | 49.9 | 26.4 ± 2.3 | 47.6 ± 2.4 | 49.2 ± 2.0 | 
8 |  |  |  |  |  |  |  | 48.5 ± 3.8 | 32.2 ± 3.6 | CCN(CC)CCCC(C)Nc1c2ccc(Cl)cc2nc2ccc(OC)cc12 (stereo not drawn) [Mepacrine, reference compound] |  |  |  |  |  | 
9 | > 3 | > 1 | > 1 | 156 to 157 | > 3 |  |  |  |  | O=C(/C=C/c1ccsc1)c1cc(O)ccc1O [Compound 7, 2′,5′-Dihydroxy-3-thienylchalcone] | 9.7 ± 2.9 | 23.5 | 10.6 ± 8.2 |  |  | % of inhibition of superoxide anion generation at the highest concentration, fMLP/CB [3]: 43.4 ± 6.1%
10 |  | 9.7 ± 1.1 | 12.9 ± 1 |  |  | 18.3 ± 0.9 | 18.9 ± 2.1 |  |  | CN1CCN(CCCN2c3ccccc3Sc3ccc(C(F)(F)F)cc32)CC1 [Trifluoperazine, reference compound] |  |  |  |  |  | 
11 | > 30 | > 30 | 24.3 ± 3.2 | 95 to 97 | > 30 | > 30 | > 30 | > 30 | > 30 | O=C(/C=C/c1cccs1)c1cccs1 [Compound 8, 2′,2-Dithienylchalcone] | 12.5 ± 2.2 | 35.6 | 15.2 ± 0.5 | 20.9 ± 1.2 | 17.3 ± 2.6 | % of inhibition of Lysozyme release at the highest concentration ([5]; fMLP/CB): 30.0 ± 1.4%; % of inhibition of β-Glucuronidase release at the highest concentration ([5]; fMLP/CB): 46.6 ± 0.7%
12 | 4.9 ± 0.3 | > 30 | > 30 | 152 to 153 | 3.7 ± 0.1 | > 30 | > 30 | > 30 | > 30 | CCOc1ccc(OCC)c(C(=O)/C=C/c2ccc(Cl)c(Cl)c2)c1 [Compound 5, 3,4-Dichloro-2′,5′-diethoxychalcone] |  | 13.2 |  | 12.9 ± 7.9 | 5.5 ± 4.7 | suppression of LPS-induced NO production in RAW 264.7 cells (in words) [2]: suppressed; inhibitory effect on fMLP/CB-induced superoxide anion generation (in words) [3]: not to have significant inhibitory effects; % of inhibition of superoxide anion generation at the highest concentration, fMLP/CB [3]: 32.4 ± 12.2%; inhibitory effect on neutrophil degranulation (in words) ([5]; fMLP/CB): no significant inhibitory effects; % of inhibition of Lysozyme release at the highest concentration ([5]; fMLP/CB): 27.1 ± 5.0%; % of inhibition of β-Glucuronidase release at the highest concentration ([5]; fMLP/CB): 30.6 ± 4.1%
